As usually defined, the IC50 is the midpoint of a concentration-inhibition curve.

SMILES strings stand for the structures.

The target in experiment [1] is IRAK4 (Homo sapiens (Human), UniProt Q9NWZ3). Briefly: IRAK4 Inhibition Assay. Conditions: ATP 500 μM; IRAK4 0.6 nM; 60 min room temperature. The experiment is classed as biochemical. The essentials:
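Phosphorylated and unphosphorylated fluorescent substrate were resolved by microfluidic electrophoresis after termination with 35 mM EDTA. The room-temperature kinase reaction lasted 60 min after IRAK4, substrates and test compound were combined; vehicle-only defined 0% and no-enzyme 100% inhibition.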

The target in experiment [2] is JAK3 kinase (Homo sapiens (Human), UniProt P52333). Briefly: JAK3 Homogeneous Time Resolved Fluorescence (HTRF) Assay. The experiment is classed as binding. As to conditions: for IC50: competition binding with fluorescein-labeled ATP competitive probe; for Ratio of JAK3 IC50 to IRAK4 IC50: selectivity for IRAK4 over JAK3. The essentials:
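IC50 reflects displacement of a fluorescein-labeled ATP-site probe (at its Kd) from 1 nM tagged JAK3, detected via 0.2 nM Tb anti-His or anti-GST antibody. One-hour incubation; 495 and 520 nm emission ratios, background-subtracted, normalized to maximum signal; 11-point percent inhibition, 4-parameter logistic.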
In general terms: TR-FRET usually uses a lanthanide donor and a delayed reading to cut background.

Chain of JAK3 kinase (P52333 whole entry): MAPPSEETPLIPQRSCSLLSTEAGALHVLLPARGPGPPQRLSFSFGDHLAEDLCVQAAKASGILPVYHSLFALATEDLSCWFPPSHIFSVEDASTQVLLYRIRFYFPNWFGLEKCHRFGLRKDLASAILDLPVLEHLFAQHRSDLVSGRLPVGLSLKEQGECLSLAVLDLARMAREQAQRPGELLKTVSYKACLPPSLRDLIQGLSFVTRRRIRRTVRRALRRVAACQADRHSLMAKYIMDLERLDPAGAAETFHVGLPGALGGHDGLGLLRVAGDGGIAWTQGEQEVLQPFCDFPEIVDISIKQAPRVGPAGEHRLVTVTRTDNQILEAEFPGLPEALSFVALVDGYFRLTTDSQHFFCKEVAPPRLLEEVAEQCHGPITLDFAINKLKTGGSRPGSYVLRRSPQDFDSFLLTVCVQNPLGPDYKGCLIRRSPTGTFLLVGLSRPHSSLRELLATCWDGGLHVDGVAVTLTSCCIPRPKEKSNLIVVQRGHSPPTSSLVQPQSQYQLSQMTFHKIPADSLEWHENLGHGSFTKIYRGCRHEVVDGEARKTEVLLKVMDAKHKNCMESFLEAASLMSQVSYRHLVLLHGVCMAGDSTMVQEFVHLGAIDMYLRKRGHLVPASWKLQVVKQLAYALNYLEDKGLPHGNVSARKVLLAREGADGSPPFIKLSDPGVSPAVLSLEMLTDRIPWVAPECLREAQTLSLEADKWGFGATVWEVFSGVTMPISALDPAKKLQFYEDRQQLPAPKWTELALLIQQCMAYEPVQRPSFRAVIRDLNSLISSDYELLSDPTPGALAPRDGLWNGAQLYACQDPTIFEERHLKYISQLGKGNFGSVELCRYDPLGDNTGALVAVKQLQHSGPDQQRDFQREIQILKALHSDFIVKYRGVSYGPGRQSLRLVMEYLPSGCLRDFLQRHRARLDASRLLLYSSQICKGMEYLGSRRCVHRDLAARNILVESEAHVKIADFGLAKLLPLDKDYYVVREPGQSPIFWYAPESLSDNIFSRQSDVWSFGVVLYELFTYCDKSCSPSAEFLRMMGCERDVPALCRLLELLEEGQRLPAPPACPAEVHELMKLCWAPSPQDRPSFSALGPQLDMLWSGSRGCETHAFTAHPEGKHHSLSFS
Chain of IRAK4 (Q9NWZ3 whole entry, species assumed): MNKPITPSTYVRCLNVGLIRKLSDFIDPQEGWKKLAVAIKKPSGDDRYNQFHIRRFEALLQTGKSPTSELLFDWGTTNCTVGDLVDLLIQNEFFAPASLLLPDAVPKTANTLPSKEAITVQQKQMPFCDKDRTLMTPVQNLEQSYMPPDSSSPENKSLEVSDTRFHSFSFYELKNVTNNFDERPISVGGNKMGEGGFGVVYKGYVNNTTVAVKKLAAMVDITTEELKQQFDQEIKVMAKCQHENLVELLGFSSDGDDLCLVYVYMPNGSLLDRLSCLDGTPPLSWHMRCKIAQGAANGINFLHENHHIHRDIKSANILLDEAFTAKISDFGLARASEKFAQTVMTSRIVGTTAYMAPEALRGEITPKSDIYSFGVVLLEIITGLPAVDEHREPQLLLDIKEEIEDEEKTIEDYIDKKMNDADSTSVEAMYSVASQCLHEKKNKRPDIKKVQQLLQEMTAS

For the compound `CC(C)(C)CNc1c(C(=O)NC[C@@H](F)C(C)(C)O)cnc2cc(-c3cccnc3)nn12` [Example 155, (R)—N-(2-fluoro-3-hydroxy-3-methylbutyl)-7-(neopentylamino)-2-(pyridin-3-yl)pyrazolo[1,5-a]pyrimidine-6-carboxamide], in experiment [1], the IC50 turned out to be 90 nM. Further, in experiment [2], the IC50 is over 50 µM and the “Ratio of JAK3 IC50 to IRAK4 IC50” value is listed as over 556.
`CC(C)Nc1c(C(=O)NC[C@@H](F)C(C)(C)O)cnn2cc(-c3cnc(N)nc3)cc12` [Example 15, (R)-6-(2-aminopyrimidin-5-yl)-N-(2-fluoro-3-hydroxy-3-methylbutyl)-4-(isopropylamino) pyrrolo[1,2-b]pyridazine-3-carboxamide]: the half-maximal inhibitory concentration (IC50) in experiment [1] was determined as 22 nM. In addition, in experiment [2], the IC50 was over 50 µM and the “Ratio of JAK3 IC50 to IRAK4 IC50” value was over 2273.
Regarding `CC(C)Nc1c(C(=O)NC[C@@H](F)C(C)(C)O)cnc2cc(-c3ccccc3F)nn12` [Example 135, (R)—N-(2-fluoro-3-hydroxy-3-methylbutyl)-2-(2-fluorophenyl)-7-(isopropylamino)pyrazolo[1,5-a]pyrimidine-6-carboxamide], the IC50 in experiment [1] came to 22 nM. In experiment [2], the IC50 was over 10 µM and the “Ratio of JAK3 IC50 to IRAK4 IC50” value is over 455.
In the case of `COC(=O)c1cncc(-c2cc3ncc(C(=O)NC[C@@H](F)C(C)(C)O)c(NC(C)C)n3n2)c1` [Example 149, methyl (R)-5-(6-((2-fluoro-3-hydroxy-3-methylbutyl)carbamoyl)-7-(isopropylamino)pyrazolo[1,5-a]pyrimidin-2-yl)nicotinate], the 50% inhibitory concentration (IC50) in experiment [1] was 210 nM. In addition, in experiment [2], the 50% inhibitory concentration (IC50) is over 50 µM and the “Ratio of JAK3 IC50 to IRAK4 IC50” value is reported as over 238.
Regarding `CC(C)Nc1c(C(=O)NC[C@@H](F)C(C)(C)O)cnc2cc(-c3cncc(C(C)(C)O)c3)nn12` [Example 150, (R)—N-(2-fluoro-3-hydroxy-3-methylbutyl)-2-(5-(2-hydroxypropan-2-yl)pyridin-3-yl)-7-(isopropylamino)pyrazolo[1,5-a]pyrimidine-6-carboxamide], the concentration for half-maximal inhibition (IC50) was 560 nM in experiment [1] and over 10 µM in experiment [2]. Besides, the “Ratio of JAK3 IC50 to IRAK4 IC50” value in experiment [2] is listed as over 18.
For `CC(C)Nc1c(C(=O)NC[C@@H](F)C(C)(C)O)cnn2cc(-c3cccc(C#N)c3)nc12` [Example 98, (R)-2-(3-cyanophenyl)-N-(2-fluoro-3-hydroxy-3-methylbutyl)-8-(isopropylamino)imidazo[1,2-b]pyridazine-7-carboxamide], in that order: 240 nM, over 50 µM and over 208.
`CC(C)Nc1c(C(=O)NC[C@@H](F)C(C)(C)O)cnc2cc(-c3cccc(=O)[nH]3)nn12` [Example 145, (R)—N-(2-fluoro-3-hydroxy-3-methylbutyl)-7-(isopropylamino)-2-(6-oxo-1,6-dihydropyridin-2-yl) pyrazolo[1,5-a]pyrimidine-6-carboxamide]: in experiment [1], the IC50 amounted to 300 nM. In experiment [2], the IC50 is over 50 µM and the “Ratio of JAK3 IC50 to IRAK4 IC50” value is listed as over 167.
On the same counts, the results for `CC(C)(O)[C@H](F)CNC(=O)c1cnn2cc(-c3cccnc3F)cc2c1NC1CCOCC1` [Example 8, (R)—N-(2-fluoro-3-hydroxy-3-methylbutyl)-6-(2-fluoropyridin-3-yl)-4-((tetrahydro-2H-pyran-4-yl)amino)pyrrolo[1,2-b]pyridazine-3-carboxamide] are 25 nM, over 50 µM and over 2000.
Consider `CC(C)(O)[C@H](F)CNC(=O)c1cnn2cc(-c3ccccc3)cc2c1NC1CC1` [Example 31, (R)-4-(cyclopropylamino)-N-(2-fluoro-3-hydroxy-3-methylbutyl)-6-phenylpyrrolo[1,2-b] pyridazine-3-carboxamide], for which the half-maximal inhibitory concentration (IC50) is 33 nM in experiment [1] and over 2 µM in experiment [2]. Also, in experiment [2], the “Ratio of JAK3 IC50 to IRAK4 IC50” value is over 61.
On to `CC(C)Nc1c(C(=O)NC[C@@H](F)C(C)(C)O)cnc2cc(-c3ccc(=O)[nH]c3)nn12` [Example 123, (R)—N-(2-fluoro-3-hydroxy-3-methylbutyl)-7-(isopropylamino)-2-(6-oxo-1,6-dihydropyridin-3-yl)pyrazolo[1,5-a]pyrimidine-6-carboxamide], for which the concentration for half-maximal inhibition (IC50) in experiment [1] came out at 4.9 nM. Further, in experiment [2], the concentration for half-maximal inhibition (IC50) is over 50 µM and the “Ratio of JAK3 IC50 to IRAK4 IC50” value was over 10204.
As for `CC(C)Nc1c(C(=O)NC[C@@H](F)C(C)(C)O)cnc2cc(-c3cccnc3F)nn12` [Example 125, (R)—N-(2-fluoro-3-hydroxy-3-methylbutyl)-2-(2-fluoropyridin-3-yl)-7-(isopropylamino)pyrazolo[1,5-a] pyrimidine-6-carboxamide], the 50% inhibitory concentration (IC50) in experiment [1] is 48 nM. For the same compound, in experiment [2], the 50% inhibitory concentration (IC50) is over 10 µM and the “Ratio of JAK3 IC50 to IRAK4 IC50” value is reported as over 208.
Consider `CC(C)Nc1c(C(=O)NC[C@@H](F)C(C)(C)O)cnn2cc(-c3cncnc3)cc12` [Example 4, (R)—N-(2-fluoro-3-hydroxy-3-methylbutyl)-4-(isopropylamino)-6-(pyrimidin-5-yl)pyrrolo[1,2-b]pyridazine-3-carboxamide], for which the IC50 in experiment [1] came to 19 nM. Besides, in experiment [2], the IC50 was over 50 µM and the “Ratio of JAK3 IC50 to IRAK4 IC50” value was over 2632.
`CC(C)(O)[C@H](F)CNC(=O)c1cnc2cc(-c3cccnc3)nn2c1N[C@H]1CCC[C@H]1O` [Example 139, N—((R)-2-fluoro-3-hydroxy-3-methylbutyl)-7-(((1S,2R)-2-hydroxycyclopentyl)amino)-2-(pyridin-3-yl)pyrazolo[1,5-a] pyrimidine-6-carboxamide]: the IC50 in experiment [1] was found to be 250 nM. Further, in experiment [2], the 50% inhibitory concentration (IC50) was over 50 µM and the “Ratio of JAK3 IC50 to IRAK4 IC50” value is given as over 200.
For `CC(C)Nc1c(C(=O)NC[C@@H](F)C(C)(C)O)cnn2cc(C3CC3)cc12` [Example 36, (R)-6-cyclopropyl-N-(2-fluoro-3-hydroxy-3-methylbutyl)-4-(isopropylamino)pyrrolo[1,2-b]pyridazine-3-carboxamide], in that order: 46 nM, over 50 µM and over 1087.
On the same counts, the results for `CC(C)Nc1c(C(=O)NC[C@@H](F)C(C)(C)O)cnn2cccc12` [Example 96, (R)—N-(2-fluoro-3-hydroxy-3-methylbutyl)-4-(isopropylamino)pyrrolo[1,2-b]pyridazine-3-carboxamide] are 740 nM, over 50 µM and over 68.
Turning to `CC(C)(O)CCNc1c(C(=O)NC[C@@H](F)C(C)(C)O)cnn2cc(-c3ccncc3)cc12` [Example 28, (R)—N-(2-fluoro-3-hydroxy-3-methylbutyl)-4-((3-hydroxy-3-methylbutyl)amino)-6-(pyridin-4-yl)pyrrolo[1,2-b]pyridazine-3-carboxamide], the IC50 in experiment [1] was determined as 40.3 nM. In experiment [2], the IC50 is over 50 µM and the “Ratio of JAK3 IC50 to IRAK4 IC50” value is over 1241.
On the same counts, the results for `COc1cc(-c2cc3c(NC4CCOCC4)c(C(=O)NC[C@@H](F)C(C)(C)O)cnn3c2)ccn1` [Example 11, (R)—N-(2-fluoro-3-hydroxy-3-methylbutyl)-6-(2-methoxypyridin-4-yl)-4-((tetrahydro-2H-pyran-4-yl)amino)pyrrolo[1,2-b]pyridazine-3-carboxamide] are 86 nM, over 50 µM and over 581.
For `CC(C)Nc1c(C(=O)NCCC(C)(C)O)cnn2cc(-c3cn[nH]c3)nc12` [Example 107, N-(3-hydroxy-3-methylbutyl)-8-(isopropylamino)-2-(1H-pyrazol-4-yl)imidazo[1,2-b]pyridazine-7-carboxamide], in that order: 90 nM, over 50 µM and over 556.
For `COc1ccc(-c2cc3ncc(C(=O)NC[C@@H](F)C(C)(C)O)c(NC(C)C)n3n2)cn1` [Example 142, (R)—N-(2-fluoro-3-hydroxy-3-methylbutyl)-7-(isopropylamino)-2-(6-methoxypyridin-3-yl)pyrazolo[1,5-a]pyrimidine-6-carboxamide], in that order: 140 nM, over 10 µM and over 71.
Take `CC(C)Nc1c(C(=O)NC[C@@H](F)C(C)(C)O)cnn2cc(-c3ccncc3F)cc12` [Example 47, (R)—N-(2-fluoro-3-hydroxy-3-methylbutyl)-6-(3-fluoropyridin-4-yl)-4-(isopropylamino)pyrrolo[1,2-b]pyridazine-3-carboxamide]: in experiment [1], the 50% inhibitory concentration (IC50) amounted to 3.5 nM. Also, in experiment [2], the half-maximal inhibitory concentration (IC50) was over 50 µM and the “Ratio of JAK3 IC50 to IRAK4 IC50” value is listed as over 14286.
For `CC(C)(O)CCNc1c(C(=O)NC[C@@H](F)C(C)(C)O)cnn2cc(-c3ccc(C#N)nc3)cc12` [Example 27, (R)-6-(6-cyanopyridin-3-yl)-N-(2-fluoro-3-hydroxy-3-methylbutyl)-4-((3-hydroxy-3-methylbutyl)amino)pyrrolo[1,2-b]pyridazine-3-carboxamide], in that order: 240 nM, over 50 µM and over 208.
For `Cc1cc(F)ncc1-c1cc2c(NC(C)C)c(C(=O)NC3CCN(S(C)(=O)=O)CC3)cnn2c1` [Example 86, 6-(6-fluoro-4-methylpyridin-3-yl)-4-(isopropylamino)-N-(1-(methylsulfonyl)piperidin-4-yl)pyrrolo[1,2-b]pyridazine-3-carboxamide], in that order: 46 nM, over 50 µM and over 1087.
